Data on one molecule can be found in patent publication US20260325500A1, “METHODS AND COMPOSITIONS FOR TREATING ACUTE STRESS DISORDER” (BioXcel Therapeutics, Inc., priority 2022, published 2026).

Entries after “also recorded” stand apart in the source; their conditions may differ. Structures can show the parent of a compound that is named as a salt.

Test [1] relates to Yohimbine-induced noradrenergic hyperarousal in Wistar rats. Nature of the test: Elevated plus maze, yohimbine-induced noradrenergic hyperarousal, dose response (Example 3). The test is classed as in vivo. As to conditions: for Percent increase as referred to the Vehicle level, Entries / Percent increase as referred to the Vehicle level, Time: 60 min. The text has this:
(§1) Background: Yohimbine is an alpha 2-adrenergic receptor antagonist reported to trigger panic attacks in healthy volunteers and to exacerbate symptoms in patients with panic disorder (Charney et al., 1992 Acta Psychiatr Scand., Vol. 86 (4): 273-282). Peripheral administration of Yohimbine causes noradrenergic mediated hyperarousal in rats as assessed by the EPM paradigm.
(§2) Rationale: The drug yohimbine is a natural product used to test a specific pathway, noradrenergic-mediated hyper-arousal. It is well established that yohimbine is an alpha2-adrenergic receptor antagonist and activates the locus coeruleus (LC) and increases noradrenergic signaling (the opposite of alpha2-adrenergic agonists like dexmedetomidine and clonidine). Increased LC activity and noradrenergic signaling makes animals anxious and agitated which can be measured by using the elevated plus maze. In the elevated plus maze, rodents were in the closed arms and explored the open arms depending on their anxiety and agitation (rats and mice normally explore their environments extensively when calm). […] This behavior is correlated to increased level of anxiety caused by noradrenergic mediated hyperarousal.
Animal groups: Rats were distributed in 9 different experimental groups with 12 […] per group as illustrated in Table 6. Each experimental group was also coded so that the experimenter became unaware of the true experimental group at the time EPM trial.
Acclimatization: Male Wistar rats (Janvier; Le Genest St Isle-France) were used for the study. They were purchased at a body weight of 150 g and reached a body weight of about 220 g at the time of use. They were group-housed (3-4 rats per cage) and maintained in a room with controlled temperature (21-22° C.) and a reversed light-dark cycle (12 h/12 h; lights on: 17:30-05:30; lights off: 05:30-17:30).
Drug preparation: All compounds/drugs were prepared in normal saline (0.9% NaCl).
Yohimbine was prepared at a solution of 2.5 mg/mL which when injected i.p. at a dosage volume of 1 mL/kg results in a dose of 2.5 mg/kg. Diazepam was prepared at a solution of 1 mg/mL which when injected i.p. at a dosage volume of 1 mL/kg results in a dose of 1 mg/kg. Latrepirdine dihydrochloride hydrate was prepared at a solution of 7.5, 2.5, 0.75 and 0.25 mg/mL which when injected i.m. at a volume of 100 μL for a rat of 250 g results in doses of 3; 1; 0.3 and 0.1 mg/kg; respectively. Latrepirdine dihydrochloride hydrate was also prepared at […] which when administrated i.p. at a dosage volume of 1 mL/kg results in a dose of 3 mg/kg.
Experimental procedure: The rats were randomly assigned to one of the different experimental groups. Each animal was identified by its group name, cage number, series (day) of experiment, and a number (from 1 to 9) written with permanent ink on its tail. They were handled by an experimenter for about 3 min each day during 1 week prior to the day of EPM trial. The apparatus was a PVC maze covered with Plexiglas and subdivided into four equal exploratory arms (40×10 cm), which were all interconnected by a small platform (10×10 cm). The apparatus was placed 65 cm above the floor. Two arms were opened, and two others were closed with wall (high: 10 cm). After compound administration, rat was placed on the platform opposite a closed arm. The number of entries and the time spent in each arm were recorded during a 5 min period. The animal was considered as entered in an arm when it placed its four paws in the arm. The apparatus was cleaned between each animal using alcohol (70%). Urine and feces were removed from the maze. During the trials, animal handling and the visibility of the operator were minimized as much as possible.
Statistical analysis: Analysis of variance (ANOVA) was performed on the result data. Fisher's PLSD was used for pairwise comparisons and p value≤0.05 were considered significant. […]

For test [2], the system named is Yohimbine-induced noradrenergic mediated hyperarousal in Wistar rats. Nature of the test: Elevated plus maze, yohimbine-induced noradrenergic mediated hyperarousal (Example 2). The format is in vivo.
Excerpt: as §1, §2
Animal groups: Male: Wistar rats were used in this study and were randomly divided to different experimental groups (12 animals per group).
Study drugs: Four test drugs with different mechanisms of action linked to agitation were chosen to find drugs that are effective in reducing yohimbine-induced agitation: (1) Fluvoxamine (selective serotonin reuptake inhibitor) (2) Dextromethorphan (modulator of NMDA signals) (3) Diazepam (modulator of gamma-aminobutyric acid (GABA) as a positive control) and (4) Latrepirdine (complex pharmacology).
The test drugs were procured from Sigma or Tocris. dextromethorphan from Sigma Aldrich, Cat No. D9684; latrepirdine from Sigma Aldrich, Cat No. D6196 or Tocris Cat No. 3201 diazepam and fluvoxamine Sigma Aldrich, Cat No. F2802 or Tocris, Cat No. 1033. All these test drugs were formulated in sufficient quantity in 0.9% saline except for fluvoxamine, which was formulated in 30% ethanol in 0.9% saline.
Apparatus: Elevated Plus Maze (EPM) was used (FIG. 1). The maze consisted of two closed arms and two open arms forming a cross, with a square center platform. All visible surfaces were made of black acrylic. Each arm of the maze was placed on a support column above the floor. Antistatic black vinyl curtains used for surrounding the EPM to make an enclosure.
Study design and dosing: Yohimbine was administered by intraperitoneal injection (i.p.) at a dose of 2.5 mg/kg (30 minutes prior to study) to induce agitation and the effects were assessed 30 minutes after yohimbine injection by measuring the number of open arm entries and exploration time in the EPM. The test drugs fluvoxamine, dextromethorphan and latrepirdine dihydrochloride hydrate were administered through intramuscular route and, diazepam through intraperitoneal route into the hindleg thigh muscle of rats (60 minutes prior to study; 30 minutes prior to yohimbine administration). Diazepam was injected 30 minutes intraperitonially prior to the assay i.e. along with yohimbine administration. The study design is illustrated in FIG. 2 and table 5.
After the test drug administration, the rat was placed on the platform opposite a closed arm. The number of entries and the time spent in each arm were recorded during a 5 min period. The animal was considered as entered in arm when it placed its four paws into the arm.
Statistical analysis: Analysis of variance (ANOVA) was performed on the result data. Fisher's PLSD was used for pairwise comparisons and p value≤0.05 was considered significant.

Where [3] appears, read: 0.1 mg/kg, i.m., yohimbine hydrochloride 2.5 mg/kg i.p.
Where [4] appears, read: 0.3 mg/kg, i.m., yohimbine hydrochloride 2.5 mg/kg i.p.
Where [5] appears, read: 1 mg/kg, i.m., yohimbine hydrochloride 2.5 mg/kg i.p.
[6] abbreviates: 3 mg/kg, i.m., saline (yohimbine-free rats).
Where [7] appears, read: 3 mg/kg, i.m., yohimbine hydrochloride 2.5 mg/kg i.p.
Setting [8] is: 3 mg/kg, i.p., yohimbine hydrochloride 2.5 mg/kg i.p.
Setting [9] is: 3 mg/kg and 10 mg/kg, i.m., 60 min prior, yohimbine 2.5 mg/kg i.p.

In the case of `Cc1ccc2c(c1)c1c(n2CCc2ccc(C)nc2)CCN(C)C1` [latrepirdine dihydrochloride hydrate], the “Percent increase as referred to the Vehicle level, Entries” value in test [1] (setting [3]) was found to be 21%; in test [1] (setting [4]), 11%; in test [1] (setting [5]) it was 106%; in test [1] (setting [6]) it was 167%; in test [1] (setting [7]) it was 172%; in test [1] (setting [8]) it was 183%. Moreover, the “Percent increase as referred to the Vehicle level, Time” value in test [1] (setting [3]) is listed as 21%; in test [1] (setting [4]), 73%; in test [1] (setting [5]) it was 274%; in test [1] (setting [6]) it was 377%; in test [1] (setting [7]) it was 392%; in test [1] (setting [8]) it was 486%. In addition, the “EPM performance of saline-treated rats (yohimbine-free)” value in test [1] (3 mg/kg i.m.) is listed as “did not significantly modify the EPM performance”. Further, the “EPM performance, i.m. compared with i.p. route” value in test [1] (3 mg/kg, yohimbine rats) was “comparable to that of specimens treated intraperitoneally”. The “noradrenergic mediated hyperarousal in yohimbine administered rats” value in test [1] (1 and 3 mg/kg) is “Conclusion: The results showed that latrepirdine dihydrochloride hydrate (at 1 and 3 mg/kg) significantly reduced noradrenergic mediated hyperarousal in yohimbine administered rats in dose-dependent manner (see table 7 and FIGS. 5 and 6)”. Moreover, in test [1] (i.m., yohimbine administered rats, 0.1-3 mg/kg), the “number of visits to and time spent into the open arms, significance” value is “effect was significant at the doses of 1 and 3 mg/kg”. In addition, in test [2] (3 mg/kg and 10 mg/kg, i.m. versus diazepam 1 mg/kg, i.p.), the “open arm entries and time spent, comparison with diazepam” value is listed as “comparable to diazepam”. Further, the “number of open arm entries” value in test [2] (setting [9]) is given as “significantly increased number of open arm entries; also recorded: significantly increased the number of entries into the open arms”. For the same molecule, the “time spent in the open arms (exploration time)” value in test [2] (setting [9]) is given as “increased exploration time; also recorded: significantly increased”. In test [2] (latrepirdine 3 mg/kg and 10 mg/kg, i.m., yohimbine 2.5 mg/kg i.p.), the “yohimbine-induced noradrenergic mediated hyperarousal” value is recorded as “reversed yohimbine-induced noradrenergic mediated hyperarousal”.
